Key:
[1] = tested on: LS180 cells adhering to recombinant P-selectin; assay: Cell adhesion to immobilized P-selectin; type: cell-based, human; conditions: LS180 cells grown 5 days with disaccharide
Procedure: Cell adhesion to immobilized selectins. 96-well plates were coated overnight at 4° C. with recombinant E-selectin (4 μg/ml) or P-selectin (2 μg/ml) (R & D Systems) and blocked with 1% BSA/PBS. LS180 cells were grown for 5 days with various amounts of acetylated disaccharide, harvested, labeled with Calcein AM (5 μM, Molecular Probes) in DMEM/1% FBS, and allowed to settle at room temperature on selectin-coated wells (5×10^4 cells/well). Plates were then stirred at 75 rpm for 30 min (Orbit shaker, Lab-Line Instruments) followed by immersion upside-down in a vessel filled with Hank's buffered saline solution (HBSS, Sigma), which allowed non-adherent cells to fall under gravity. St John et al., J. Immunol Methods, 170: 159-166, 1994. The wells were then washed by aspiration using HBSS. LS180 cells were less adherent to P-selectin, so the immersion step was not necessary prior to washing. […] Fluorescence was measured using a 96-well fluorimeter (CytoFluor II), and the average of triplicate measurements was determined±standard error. Cell viability was judged to be >90% by Trypan blue exclusion at the end of each experiment.
Adhesion to selectins is altered in disaccharide-treated tumor cells. Treatment of LS180 cells with AcGnG-NM was not toxic to the cells up to 100 μM based on growth curves and exclusion of Trypan blue. […]

[2] = tested on: HAL8 human metastatic lung adenocarcinoma cells; assay: Metastatic lung tumor formation in SCID mice (HAL8); type: in vivo
[3] = tested on: LS180 colon carcinoma cells; assay: Adhesion of activated human platelets to tumor cells (LS180); type: cell-based; conditions: 50 μM, 3 days, thrombin-activated human platelets
Procedure: Adhesion of activated human platelets to tumor cells. Tumor cells were seeded into 6-well plates (5×10^4/well), and allowed to grow into colonies in the presence or absence of 50 μM AcGnG-NM. After 3 days, platelets were isolated from 15 ml of normal human blood collected into 20% (v/v) Acid-Citrate-Dextrose (ACD) anticoagulant. A platelet-rich plasma was prepared by centrifugation and repeated washing using PSG buffer (5 mM HEPES, pH 6.8, 145 mM NaCl, 4 mM KCl, 0.5 mM sodium phosphate, 5.5 mM glucose, 0.5% BSA, and 25 nM prostaglandin E1 [Sigma]). The platelets were then labeled with Calcein AM (5 μM), and counted with a hemocytometer. Wells containing tumor cells were washed with HBSS, and 3×10^6 platelets were added in 1 ml of HBSS followed by activation with human thrombin (0.8 IU/well; Sigma). The plates were rocked for 10 min, and the wells were washed twice with HBSS, fixed with 5% formalin in HBSS, and analyzed by fluorescence microscopy. […]
Platelets bound to tumor cells were visualized by fluorescence microscopy (Nikon Diaphot) equipped with a digital camera (Nikon) linked to an Apple Macintosh computer with Adobe Photoshop software. The fluorescence image showing the platelets was superimposed on a phase-contrast picture of the cells and the number of attached platelets was quantified. […]

[4] = tested on: mucin-like oligosaccharides that carry sLe^X determinants; conditions: among several disaccharides; cited from earlier work
[5] = tested on: LLC cells; assay: Experimental metastasis of pretreated LLC cells; type: in vivo, mice; conditions: cells treated 4 days, Es1(e) mice, 3 weeks
Procedure: (A) LLC cells were treated in culture for 4 days with peracetylated GlcNAcβ3Gal-NM or vehicle (DMSO/propylene glycol, v/v 1:1). Single-cell suspensions (2×10^5) were injected in the tail-veins of Es1(e) mice. After 3 weeks, the mice were sacrificed and the number of tumors present on the surface of the lungs was determined by visual inspection.
LLC cells were treated in culture for 5 days with 4-deoxy AcGnG-NM, AcGnG-NM or vehicle (DMSO:propylene glycol) and then a single-cell suspension (2×10^5 cells) was injected in the tail vein of mice. After 3 weeks, the number of tumors present on the surface of the lungs was determined.

[6] = tested on: sLe^X on LS180 cell surface; assay: ELISA with CSLEX-1 mAb of cell-surface sLe^X; type: cell-based, human; conditions: LS180 cells

GlcNAcβ1,3Galβ-O-naphthalenemethanol [AcGnG-NM]
adhesion to recombinant P-selectin [1]: reduced the ability of LS180 cells to adhere
lung tumor foci [2]: behaved similarly
reduction of platelet adhesion [3]: 60%
potency as primer [4]: highest potency
tumors on the surface of the lungs [5]: significantly fewer tumor foci
expression of sLe^X on the cell surface [6]: inhibited expression of sLe^X on the cell surface in a dose-dependent manner

— patent US7772192B2, “Compositions and methods for treatment of disease with acetylated disaccharides” (The Regents of the University of California, priority 2003, dated 2010)
